Common to all, as to assay type: biochemical
One test addresses GSK-3α (Homo sapiens, UniProt P49840). As to the kind of experiment: GSK-3 kinase assay (C1), GSK-3α. To be noted: 1 μM ATP; for IC50: read-out: C1 Score α. In outline: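 Radiometric SPA at room temperature in 25 mM Tris pH 7.4 with 10 mM MgCl2, 1 mM DTT, 5.7 ng/μl GSK-3β or 0.25 ng/μl GSK-3α, 5 μM biotinylated CREB peptide and 1 μM ATP plus ^33P-ATP. Stopped after 1 h; IC50 from dose-response versus no-compound control, reported as pIC50 score bands.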

The target of the next test is CDK2/cyclinA (h) (Homo sapiens, UniProt P24941). As to the kind of experiment: Kinase profiling C3.3 CDK2/cyclinA human. To be noted: test concentration of 10^−6 M. The procedure, abridged: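 Human CDK2/cyclinA (5-10 mU) phosphorylates 0.1 mg/ml histone H1 in 8 mM MOPS pH 7.0, EDTA, 10 mM Mg acetate with [γ-33P]ATP, 40 min at room temperature. After phosphoric acid stop, filter-bound 33P counted by scintillation.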

A further test has as its target CDK3/cyclinE (h) (Homo sapiens, UniProt Q00526). As to the kind of experiment: Kinase profiling C3.5 CDK3/cyclinE human. To be noted: test concentration of 10^−6 M. The procedure, abridged: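 Human CDK3/cyclinE (5-10 mU) phosphorylated 0.1 mg/ml histone H1 in 8 mM MOPS pH 7.0, 0.2 mM EDTA and 10 mM MgAcetate with [γ-33P]ATP. Reaction ran 40 min at room temperature and was stopped with phosphoric acid. Substrate-bound radioactivity was captured on P30 filtermat and measured by scintillation counting.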

The target in a further test is CDK7/cyclinH/MAT1 (h) (Homo sapiens, UniProt P50613). As to the kind of experiment: Kinase profiling C3.8 CDK7/cyclinH/MAT1 human. To be noted: CDK7/cyclinH/MAT1, test concentration of 10^−6 M. The procedure, abridged:
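Human CDK7/cyclinH/MAT1 (5-10 mU) incubated 40 min at room temperature in 8 mM MOPS pH 7.0, 0.2 mM EDTA, 10 mM Mg acetate, 500 μM peptide substrate and [γ-^33P]ATP. Stopped with phosphoric acid; substrate phosphorylation measured by filter binding and scintillation counting.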

A further test concerns the target CDK2/cyclinE (h) (Homo sapiens, UniProt P24941). As to the kind of experiment: Kinase profiling C3.4 CDK2/cyclinE human. To be noted: test concentration of 10^−6 M. In outline: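 Radiometric filter-binding assay: 5-10 mU enzyme with 0.1 mg/ml histone H1 in 8 mM MOPS pH 7.0, 0.2 mM EDTA, 10 mM Mg acetate and [γ-33P]ATP. Incubated 40 min at room temperature, stopped with phosphoric acid. Substrate-bound 33P counted on P30 filtermat.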

For another test, the target named is CDK1/cyclinB (h) (Homo sapiens, UniProt P06493). Description: Kinase profiling C3.2 CDK1/cyclinB human. To be noted: test concentration of 10^−6 M. The procedure, abridged:
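Radiometric filter-binding assay: human CDK1/cyclinB (5-10 mU) with 0.1 mg/ml histone H1 substrate and [γ-33P]ATP in 8 mM MOPS pH 7.0, 10 mM Mg acetate, 40 min at room temperature. Stopped with phosphoric acid; substrate-bound 33P counted on P30 filtermat by scintillation.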

A value given as a limit tells only on which side of the number the result lay.

Here are results for five molecules from patent publication US8778919B2, “Cyclic anilino—pyridinotriazines” (Janssen Pharmaceutica NV, priority 2005, dated 2014).

Chain of CDK1/cyclinB (h) (P06493 whole entry): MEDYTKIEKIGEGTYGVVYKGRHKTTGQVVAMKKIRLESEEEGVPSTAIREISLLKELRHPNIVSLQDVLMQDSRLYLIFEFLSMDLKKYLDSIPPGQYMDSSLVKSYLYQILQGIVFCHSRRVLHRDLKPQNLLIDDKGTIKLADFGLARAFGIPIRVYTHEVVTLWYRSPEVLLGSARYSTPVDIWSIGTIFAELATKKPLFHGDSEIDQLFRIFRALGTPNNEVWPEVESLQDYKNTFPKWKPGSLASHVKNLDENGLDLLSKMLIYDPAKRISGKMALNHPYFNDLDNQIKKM
Chain of CDK1/cyclinB (h) (P14635 whole entry partner): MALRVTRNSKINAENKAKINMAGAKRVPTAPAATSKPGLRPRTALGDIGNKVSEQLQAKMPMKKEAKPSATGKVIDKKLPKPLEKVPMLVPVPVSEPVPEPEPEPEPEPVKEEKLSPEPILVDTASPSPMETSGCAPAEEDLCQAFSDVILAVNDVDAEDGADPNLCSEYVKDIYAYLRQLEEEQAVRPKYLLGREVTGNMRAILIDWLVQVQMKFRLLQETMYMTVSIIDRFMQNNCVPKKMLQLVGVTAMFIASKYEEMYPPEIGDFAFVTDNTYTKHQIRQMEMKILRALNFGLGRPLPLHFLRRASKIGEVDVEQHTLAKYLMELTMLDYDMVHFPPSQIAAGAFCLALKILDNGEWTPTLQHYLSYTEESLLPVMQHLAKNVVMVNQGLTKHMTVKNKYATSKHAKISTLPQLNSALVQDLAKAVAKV
Chain of GSK-3α (P49840 whole entry, species assumed): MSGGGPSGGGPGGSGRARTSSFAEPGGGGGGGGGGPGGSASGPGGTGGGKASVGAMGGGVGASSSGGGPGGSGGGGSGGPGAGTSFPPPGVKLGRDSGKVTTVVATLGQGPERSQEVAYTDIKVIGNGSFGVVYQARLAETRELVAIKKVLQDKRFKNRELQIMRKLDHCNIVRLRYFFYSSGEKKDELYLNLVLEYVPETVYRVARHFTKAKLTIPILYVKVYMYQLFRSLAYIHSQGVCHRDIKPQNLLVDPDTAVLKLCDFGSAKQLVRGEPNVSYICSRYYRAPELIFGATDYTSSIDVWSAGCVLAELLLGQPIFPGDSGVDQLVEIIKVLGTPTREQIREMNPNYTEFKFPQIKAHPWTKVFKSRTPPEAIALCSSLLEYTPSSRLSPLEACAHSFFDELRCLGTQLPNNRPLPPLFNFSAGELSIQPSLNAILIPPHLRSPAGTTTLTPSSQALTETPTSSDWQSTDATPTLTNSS
Chain of CDK7/cyclinH/MAT1 (h) (P50613 whole entry): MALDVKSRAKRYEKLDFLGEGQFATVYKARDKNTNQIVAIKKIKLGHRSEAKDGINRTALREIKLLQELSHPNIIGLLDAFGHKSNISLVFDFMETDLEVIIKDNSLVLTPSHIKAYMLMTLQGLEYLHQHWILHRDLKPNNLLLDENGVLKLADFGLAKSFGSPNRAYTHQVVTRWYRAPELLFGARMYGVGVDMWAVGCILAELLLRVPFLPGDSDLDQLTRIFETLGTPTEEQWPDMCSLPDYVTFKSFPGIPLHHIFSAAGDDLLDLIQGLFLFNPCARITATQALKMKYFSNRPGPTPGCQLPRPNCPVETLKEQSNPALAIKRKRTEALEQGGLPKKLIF
Chain of CDK7/cyclinH/MAT1 (h) (P51946 whole entry partner): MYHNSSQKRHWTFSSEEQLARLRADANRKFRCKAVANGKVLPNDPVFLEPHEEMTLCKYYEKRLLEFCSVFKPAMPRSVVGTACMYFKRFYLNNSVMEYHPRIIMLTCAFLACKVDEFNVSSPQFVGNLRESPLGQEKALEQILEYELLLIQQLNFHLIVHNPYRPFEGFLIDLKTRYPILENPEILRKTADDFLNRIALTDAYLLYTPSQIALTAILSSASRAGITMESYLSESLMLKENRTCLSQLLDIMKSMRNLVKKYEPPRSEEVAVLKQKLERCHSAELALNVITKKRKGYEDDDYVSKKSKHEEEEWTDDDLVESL
Chain of CDK7/cyclinH/MAT1 (h) (P51948 whole entry partner): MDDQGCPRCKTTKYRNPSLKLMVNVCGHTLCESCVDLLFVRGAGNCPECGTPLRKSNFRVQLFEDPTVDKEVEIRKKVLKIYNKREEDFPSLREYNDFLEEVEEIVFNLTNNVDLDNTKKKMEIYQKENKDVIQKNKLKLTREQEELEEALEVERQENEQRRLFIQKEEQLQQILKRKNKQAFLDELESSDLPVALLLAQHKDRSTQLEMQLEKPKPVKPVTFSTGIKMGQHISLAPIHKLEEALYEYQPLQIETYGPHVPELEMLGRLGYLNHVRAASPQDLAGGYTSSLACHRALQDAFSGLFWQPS

Consider `O=C1NCCCc2cc(ccc2F)-c2ncnc(n2)Nc2cc(Cl)cc(c2)CN[C@H]1CO` [Compound 71], for which the IC50 on GSK-3α was below 10 nM. The C3.3 score on CDK2/cyclinA (h) is recorded as 2 (Score 2 = 30-60% inhibition). Further, the C3.5 score on CDK3/cyclinE (h) is 4 (Score 4 = >80% inhibition). Further, the C3.8 score on CDK7/cyclinH/MAT1 (h) is given as 4 (Score 4 = >80% inhibition). For the same molecule, at CDK2/cyclinE (h), the C3.4 score is reported as 4 (Score 4 = >80% inhibition). For the same molecule, on CDK1/cyclinB (h), the C3.2 score is 4 (Score 4 = >80% inhibition).
Regarding `O=C1CN2CCN(CC2)Cc2cc(Cl)cc(c2)Nc2ncnc(n2)-c2ccnc(c2)CCCN1` [Compound 41], the IC50 at GSK-3α was below 10 nM. At CDK2/cyclinA (h), the C3.3 score is recorded as 4 (Score 4 = >80% inhibition). The C3.5 score at CDK3/cyclinE (h) is 3 (Score 3 = 60-80% inhibition). The C3.8 score on CDK7/cyclinH/MAT1 (h) was 2 (Score 2 = 30-60% inhibition). Also, on CDK2/cyclinE (h), the C3.4 score is given as 4 (Score 4 = >80% inhibition). Moreover, the C3.2 score on CDK1/cyclinB (h) is given as 4 (Score 4 = >80% inhibition).
Take `O=C1CN2CCN(CC2)Cc2cccc(c2)Nc2ncnc(n2)-c2ccnc(c2)CCCN1` [Compound 9]: the “C1 Score α” value at GSK-3α was 4 (Score 4=pIC50 value>8). Further, the C3.3 score at CDK2/cyclinA (h) was 4 (Score 4 = >80% inhibition). In addition, at CDK3/cyclinE (h), the C3.5 score is 3 (Score 3 = 60-80% inhibition). In addition, the C3.8 score on CDK7/cyclinH/MAT1 (h) is recorded as 2 (Score 2 = 30-60% inhibition). At CDK2/cyclinE (h), the C3.4 score was 4 (Score 4 = >80% inhibition). The C3.2 score at CDK1/cyclinB (h) is recorded as 4 (Score 4 = >80% inhibition).
As to `O=C1CN2CCN(CC2)Cc2cccc(c2)Nc2ncnc(n2)-c2ccc(F)c(c2)CCCN1` [Compound 66], the IC50 at GSK-3α is below 10 nM. For the same molecule, at CDK2/cyclinA (h), the C3.3 score is listed as 3 (Score 3 = 60-80% inhibition). Besides, the C3.5 score at CDK3/cyclinE (h) was 3 (Score 3 = 60-80% inhibition). For the same molecule, the C3.8 score on CDK7/cyclinH/MAT1 (h) was 1 (Score 1 = 10-30% inhibition). Also, the C3.4 score on CDK2/cyclinE (h) was 4 (Score 4 = >80% inhibition). Further, the C3.2 score on CDK1/cyclinB (h) is 4 (Score 4 = >80% inhibition).
Regarding `CN1CC(=O)NC/C(Cl)=C/c2cc(ccn2)-c2ncnc(n2)Nc2cccc(c2)C1` [Compound 2], on GSK-3α, the IC50 was below 10 nM. The C3.3 score at CDK2/cyclinA (h) is 4 (Score 4 = >80% inhibition). The C3.5 score at CDK3/cyclinE (h) was 4 (Score 4 = >80% inhibition). Further, on CDK7/cyclinH/MAT1 (h), the C3.8 score was 3 (Score 3 = 60-80% inhibition). Further, the C3.4 score at CDK2/cyclinE (h) is 4 (Score 4 = >80% inhibition). Also, the C3.2 score at CDK1/cyclinB (h) was 4 (Score 4 = >80% inhibition).
